From ChEMBL document CHEMBL1681658, “Design, synthesis and SAR of a series of 1,3,5-trisubstituted benzenes as thrombin inhibitors” (Bioorg Med Chem Lett, 2011)

Columns and labels:
[1] = tested on: Plasma; experiment: Anticoagulant activity in human plasma assessed as concentration required to double activated partial thromboplastin time; type: functional
[2] = biological target: Prothrombin (Homo sapiens, UniProt P00734); experiment: Inhibition of thrombin
[3] = Inhibition of trypsin

| Compound | 2aPTT [1] [µM] | Ki [2] [nM] | Ki [3] [nM] |
| --- | --- | --- | --- |
| Cc1cc(OCCc2ccccc2CN)cc(C(=O)N(CC(C)C)CC(C)C)c1 | 3.6 | 2.9 | 29000 |
| Cc1cc(C(=O)NCc2cc(Cl)ccc2-n2cnnn2)cc(-c2cnccc2C(C)C)c1 | 1.5 | 0.27 | > 100000 |
| Cc1cc(OCCc2nc[nH]c2C)cc(C(=O)N(CC(C)C)CC(C)C)c1 | 4.1 | 3.5 | 2600 |
| Cc1cc(OCCc2cc(Cl)ccc2-n2cncn2)cc(C(=O)N(CC(C)C)CC(C)C)c1 | 7.1 | 0.93 | 28000 |
| Cc1cc(C(=O)NCc2cc(Cl)ccc2-n2cnnn2)cc(N(C2CCCC2)S(C)(=O)=O)c1 | 0.75 | 1.25 | > 100000 |
| CC(=O)c1ccncc1-c1cc(C)cc(C(=O)NCc2cc(Cl)ccc2-n2cnnn2)c1 | – | 85 | > 100000 |
| Cc1cc(OCCc2cc(Cl)ccc2OCC(=O)NC2CCCNC2)cc(C(=O)N(CC(C)C)CC(C)C)c1 (stereo unspecified) | >8.2 | 1.6 | 78000 |
| Cc1cc(C(=O)NCc2cc(Cl)ccc2-n2cnnn2)cc(-c2cnccc2N(C)C)c1 | – | 67 | 302000 |
| Cc1cc(OCCc2ccccc2-n2cnnn2)cc(C(=O)N(CC(C)C)CC(C)C)c1 | 4.4 | 1.7 | 37000 |
| CC(=O)N(c1cc(C)cc(C(=O)NCc2cc(Cl)ccc2-n2cnnn2)c1)C1CCCCC1 | 1.67 | 4.1 | > 100000 |
| Cc1cc(C(=O)NCc2cc(Cl)ccc2-n2cnnn2)cc(C(=O)N(CC(C)C)CC(C)C)c1 | 1.2 | 0.27 | 29000 |
| Cc1cc(C(=O)NCc2cc(Cl)ccc2-n2cnnn2)cc(N(CCN)C2CCCCC2)c1 | 1.48 | 1.6 | 75000 |
| Cc1cc(C(=O)NCc2cc(Cl)ccc2-n2cnnn2)cc(N(C2CCCCC2)S(C)(=O)=O)c1 | 0.87 | 0.93 | > 100000 |
| Cc1cc(C(=O)NCc2cc(Cl)ccc2-n2cncn2)cc(C(=O)N(CC(C)C)CC(C)C)c1 | 5.3 | 7 | > 100000 |
| Cc1cc(C(=O)NCc2cc(Cl)ccc2CN)cc(C(=O)N(CC(C)C)CC(C)C)c1 | 1.6 | 0.68 | 111000 |
| COC(=O)COc1ccc(Cl)cc1CCOc1cc(C)cc(C(=O)N(CC(C)C)CC(C)C)c1 | >8.2 | 0.73 | > 100000 |
| Cc1cc(OCC(F)(F)c2cc(C)ccn2)cc(C(=O)N(CC(C)C)CC(C)C)c1 | – | 37 | > 100000 |
| Cc1cc(NC2CCCCC2)cc(C(=O)NCc2cc(Cl)ccc2-n2cnnn2)c1 | >8.2 | 9.6 | > 100000 |
| Cc1cc(C(=O)NCc2ccccc2-n2cnnn2)cc(C(=O)N(CC(C)C)CC(C)C)c1 | – | 50 | > 100000 |
| Cc1cc(C(=O)NCc2cc(Cl)ccc2-n2cnnn2)cc(C2CNCCC2CC(C)C)c1 (stereo unspecified) | 1.42 | 1.8 | 278000 |
| Cc1cc(C(=O)NCc2cc(Cl)ccc2-n2cnnn2)cc(-c2c[n+]([O-])ccc2C(C)C)c1 | 0.38 | 0.77 | 483000 |
| COc1ccc(Cl)cc1CCOc1cc(C)cc(C(=O)N(CC(C)C)CC(C)C)c1 | – | 34 | > 100000 |
